# “And” between values parts separate entries of the source, which are not always exact repeats. Identical values can stand only once. “Also recorded” adds a separate entry of the source.
# Experiments:
# [1] = system: patients with advanced cancer and cachexia; conditions: after 4 weeks; cited from earlier work
# [2] = system: patients with cancer anorexia-cachexia syndrome; conditions: cited from earlier work
# [3] = system: patients with NSCLC-Cachexia; assay: Romana 1: randomized, double-blind, placebo-controlled phase 3 study of anamorelin HCl; type: in vivo, human; conditions: for Fatigue Domain of FACIT-F, change from baseline, subgroup / Simplified Evaluation of Fatigue (SEF), change from baseline, subgroup: MITT
# Excerpt: Example 1 Anamorelin HCl in the Treatment of Non-Small Cell Lung Cancer—Cachexia (NSCLC-C): A Randomized, Double-Blind, Placebo-Controlled, Multicenter, Phase III Study to Evaluate the Safety and Efficacy of Anamorelin HCl in Patients with NSCLC-C(Romana 1)
# (§1) Key features of the Romana 1 study are as follows: • DESIGN: randomized, double-blind, placebo-controlled, multicenter, phase 3 study to evaluate the safety and efficacy of anamorelin HCl (anamorelin) in patients with NSCLC-Cachexia (59 sites; 15 countries) • PRIMARY ENDPOINT: Lean body mass (LBM) by DXA • SECONDARY ENDPOINTS: • Key: pooled overall survival, Anorexia/Cachexia sub-domain, Fatigue sub-domain, Simplified Evaluation of Appetite (SEA), and Simplified Evaluation of Fatigue (SEF) • Other: Body weight, study specific overall survival, FAACT/FACIT-F trial outcome index (TOI) and total scores, additional LBM analyses • EXPLORATORY ENDPOINTS: Hunger Assessment Scale (HAS), Karnofsky (KPS), responder analyses; Population pharmacokinetics (PK) in 90 patients • STUDY POPULATION: advanced NSCLC (unresectable Stage III or IV) and cachexia (≥5% body weight within 6 months or screening BMI<20 kg/m^2) • SAMPLE SIZE: 484 patients; randomization ratio 2:1 (anamorelin:placebo) • DOSING: placebo or 100 mg anamorelin for 12 weeks • SAFETY ASSESSMENTS: Adverse events (AEs), labs, vitals, ECGs
# [4] = system: patients with NSCLC-Cachexia; assay: Romana 2: randomized, double-blind, placebo-controlled phase 3 study of anamorelin HCl; type: in vivo, human
# Excerpt: Example 2 Anamorelin HCL in the Treatment of Non-Small Cell Lung Cancer—Cachexia (NSCLC-C): A Randomized, Double-Blind, Placebo-Controlled, Multicenter, Phase III Study to Evaluate the Safety and Efficacy of Anamorelin Hcl in Patients with NSCLC-C(Romana 2)
# as §1, with “Romana 2” for “Romana 1”, “SIZE: 495” for “SIZE: 484”
# healthy subjects [5] = conditions: 50 or 75 mg doses; after 6 days; cited from earlier work
# healthy subjects [6] = conditions: cited from earlier work
# [7] = system: patients with various cancers and cachexia; conditions: 50 mg once per day; cited from earlier work
# [8] = system: patients with various cancers with cachexia; conditions: 50 mg once per day, cited from earlier work
# [9] = system: patients with advanced non-small cell lung cancer (NSCLC); conditions: cited from earlier work
# [10] = ITT population, 100 mg anamorelin for 12 weeks, LBM by DXA
# [11] = ITT population, over 12 weeks, 100 mg
# [12] = MITT population, 12-week study period, anamorelin vs. placebo
# [13] = MITT population, over 12 weeks, 100 mg
# [14] = anamorelin treatment for 12 weeks
smiles,measurement,setting,value
COc1ccc2[nH]cc(CCNC(C)=O)c2c1 [melatonin],"Weight, body composition (including fat-free mass), symptom scores, quality-of-life outcomes (FACIT-F and FAACT) vs placebo",[1],No differences
CC(=O)O[C@]1(C(C)=O)CC[C@H]2[C@@H]3C=C(C)C4=CC(=O)CC[C@]4(C)[C@H]3CC[C@@]21C [megestrol acetate],Quality of life in cancer cachexia patients,"[2]; 13 of 14 studies no significant difference vs placebo, dronabinol, eicosapentaenoic acid or glucocorticosteroids",has not been shown to improve
same,Body weight and water,"[2]; human, in vivo",only been shown to increase body weight and water
same,Fat mass or lean body mass,"[2]; human, in vivo",does not improve
CN(C)N(C)C(=O)[C@@]1(Cc2ccccc2)CCCN(C(=O)[C@@H](Cc2c[nH]c3ccccc23)NC(=O)C(C)(C)N)C1 [anamorelin],"Lean Body Mass, median change from baseline over 12 weeks",[3]; [10],1.10 kg
same,"Lean Body Mass, median treatment difference (anamorelin vs. placebo)",[3]; [11],1.54 kg
same,"FAACT TOI, overall treatment difference",[3]; [12],2.86±1.161
same,"FAACT Total, overall treatment difference",[3]; [12],2.67±1.459
same,"FACIT TOI, overall treatment difference",[3]; [12],1.90±1.358
same,"FACIT Total, overall treatment difference",[3]; [12],2.07±1.651
same,"Anorexia/Cachexia Domain, Treatment Difference (anamorelin vs. placebo), LS Mean (SE)",[3]; [13],2.21 (0.617)
same,"Body Weight, Treatment Difference (anamorelin vs. placebo), LS Mean (SE)",[3]; [13],2.07 (0.325) kg
same,"Body Weight, overall change from baseline, LS Mean (SE)",[3]; [13],2.20±0.3 kg and 2.20 (0.326) kg
same,"FACIT-F Fatigue Domain, change from baseline, LS Mean (SE)",[3]; [13],0.26 (0.886)
same,"SEA Score, Treatment Difference (anamorelin vs. placebo), LS Mean (SE)",[3]; [13],0.65 (0.262)
same,"SEA Score, change from baseline, LS Mean (SE)",[3]; [13],1.57 (0.317)
same,"SEF Score, Treatment Difference (anamorelin vs. placebo), LS Mean (SE)",[3]; [13],0.33 (0.265)
same,"SEF Score, change from baseline, LS Mean (SE)",[3]; [13],0.11 (0.309)
same,"Fatigue Domain of FACIT-F, change from baseline, subgroup","[3]; BMI>18.5, Week 3 to 12",smaller improvement trend
same,"Simplified Evaluation of Fatigue (SEF), change from baseline, subgroup",[3]; BMI≤18.5 (statistically significant at Week 3 and 6),improvement trend over 12 Weeks
same,"Fatigue Domain of FACIT-F, change from baseline, subgroup","[3]; ECOG 0-1, Week 3, 6, 9 to 12",gap increase between placebo and anamorelin
same,"Fatigue Domain of FACIT-F, change from baseline, subgroup","[3]; aged 65 years and younger, concomitant opioid use, ECOG 2 (Weeks 9 and 12), BMI≤18.5",statistically significant improvement
same,"Simplified Evaluation of Fatigue (SEF), change from baseline, subgroup",[3]; concomitant opioid use,small trend of improvement
same,"Fatigue Domain of FACIT-F, change from baseline, subgroup","[3]; males, Week 3 to 6 (statistically significant at Week 9)",general improvement trend
same,"Fatigue Domain of FACIT-F, change from baseline, subgroup",[3]; no-concomitant opioid use,smaller overall improvement trend
same,Tolerability,[3]; [14],well tolerated
same,Percentage change from baseline in LBM,[3]; throughout the 12-week study,consistent improvement
same,"FACIT-F score (fatigue), change from baseline","[3]; week 9, 100 mg",0.33±0.9
same,"FACIT-F score (fatigue), change from baseline","[3]; week 12, 100 mg",0.48±1.0
same,"Lean Body Mass, median change from baseline over 12 weeks",[4]; [10],0.75
same,"Lean Body Mass, median treatment difference (anamorelin vs. placebo)",[4]; [11],1.71
same,FAACT TOI and total score (cachexia concerns),[4]; MITT population,trending benefit
same,FACIT-F TOI and total score,[4]; MITT population,No benefit
same,SEF score vs. placebo,"[4]; MITT population, 12-week study period",overall small trend of improvement; also recorded: not statistically different from placebo
same,"Anorexia/Cachexia Domain, Treatment Difference (anamorelin vs. placebo), LS Mean (SE)",[4]; [13],2.14 (0.676)
same,"Body Weight, Treatment Difference (anamorelin vs. placebo), LS Mean (SE)",[4]; [13],1.53 (0.327) kg
same,"Body Weight, overall change from baseline, LS Mean (SE)",[4]; [13],0.95 (0.386) kg
same,"FAACT Anorexia/Cachexia Domain, change from baseline, LS Mean (SE)",[4]; [13],3.48 (0.944)
same,"SEA Score, Treatment Difference (anamorelin vs. placebo), LS Mean (SE)",[4]; [13],0.66 (0.283)
same,"SEA Score, change from baseline, LS Mean (SE)",[4]; [13],1.08 (0.400)
same,"FACIT-F fatigue score, subgroup","[4]; MITT, BMI less than or equal to 18.5",maintained a steady score after Week 3
same,"FACIT-F fatigue score, subgroup","[4]; MITT, ECOG of 2",general trend of improvement
same,"SEF score, subgroups","[4]; MITT, concomitant opioid use and BMI≤18.5",Specific improvements
same,"FACIT-F fatigue score, subgroup","[4]; MITT, concomitantly taking opioids, after Week 3",did not experience as severe of a decline in score as those in the placebo group
same,"FACIT-F fatigue score, subgroup","[4]; MITT, patients under the age of 65, after Week 3",did not experience as severe of a decline in score as those in the placebo group
same,Tolerability,[4]; [14],well tolerated
same,Concerns related to weight and body image (FAACT),[4]; in vivo,an improvement
same,Percentage of change in LBM,[4]; in vivo,consistent increases
same,"Symptoms of early satiety and appetite (individual FAACT questions), change from baseline over time",[4]; in vivo,showed an improvement
same,Body weight gain versus placebo,healthy subjects [5],significant dose-related weight gain
same,Body weight,healthy subjects [6]; 50 mg dose (single or split dose) and 75 mg dose,significant increases
same,GH levels,"healthy subjects [6]; all doses (25, 50, 75 mg)",significantly increased
same,IGF-1 levels,"healthy subjects [6]; all doses (25, 50, 75 mg)",significantly increased
same,Appetite as measured by BACRI-7,[7],no significant difference
same,Body weight compared with placebo,[7],significantly increased
same,Enjoyment from eating (BACRI-7),[7],significantly more patients reported greater enjoyment from eating
same,FACIT-F scores,[7],significantly increased
same,Food intake,[7],increased but not significantly
same,GH levels,[7],significantly increased
same,IGF-1 levels,[7],significantly increased
same,IGFBP-3 levels,[7],significantly increased
same,Patient-reported appetite as measured by ASAS,[7],significantly improved
same,ASAS scores,[8],improved
same,Fat mass decrease vs. placebo,[8],the difference did not reach statistical significance
same,Quality of life as measured by the FACIT-F test,[8],No significant effects
same,Scale weight measures,[8],no corresponding increase
same,Levels of IGF-1,"[8]; weeks 4, 8, and 12",significantly increased
same,Levels of IGFBP-3,"[8]; weeks 4, 8, and 12",significantly increased
same,Lean body mass compared to placebo,[8]; weeks 4 and 8,significantly increased
same,Total body mass compared to placebo,[8]; weeks 4 and 8,significantly increased
same,Average weight gain from baseline to week 12,[9]; 100 mg once daily,statistically significant average weight gain
same,IGFBP-3 as compared to placebo,[9]; 50 or 100 mg once daily,statistically significant increases
same,MD Anderson Symptom Inventory (MDASI) scores,[9]; 50 or 100 mg once daily,the improvement was not significant

# Reference: patent US10278964B2, “Medical treatments based on anamorelin” (HELSINN HEALTHCARE SA, priority 2014, dated 2019)
